Results published in patent US6737434B2, “Imidazole derivatives or their salts” (SSP Co., Ltd., priority 2000, dated 2004).

Test system: human G-CSF-dependent cell strain (BAF/hGCSFR)
Assay: Induction of cell growth of a human G-CSF-dependent cell strain (WST-1 absorbance), expressed as human-G-CSF equivalent concentration
Assay type: cell-based
Settings: 48 hours incubation, mean±standard error, n=5
Experimental: Cloning of human G-CSF receptor gene was performed through RT-PCR by using primers created on the basis of the human G-CSF receptor gene using a human spleen cDNA library. The thus cloned human G-CSF receptor gene inserted to a multicloning site of an expression vector. Subsequently, the gene-inserted expression vector was transformed into E. coli for multiplication, and the expression vector was extracted. An aliquot of the expression vector (20 μg) was added to host cells (BAF/B03) prepared to 5×10^7 cells/800 μL K-PBS (30.8 mM NaCl, 120.7 mM KCl, 8.1 mM Na2HPO4, 1.46 mM KH2PO4, 5 mM MgCl2), followed by standing still at 4° C. for 15 minutes. For gene transfer, electroporation was performed at a voltage of 280 V and a capacitance of 950 μF. After completion of gene transfer, the cells were suspended in a DMEM medium ((+) 10% FCS) containing recombinant human G-CSF (rhG-CSF, 20 ng/mL) and puromycin (2 μg/mL), whereby a human G-CSF dependent cell strain was created.
For studying the cell multiplication ability with respect to rhG-CSF, the following procedure was carried out. Briefly, cells in which the human G-CSF receptor gene had been inserted (BAF/hGCSFR) were collected, and washed with PBS(−). Subsequently, the cells were suspended in DMEM medium, and the medium containing the cells was prepared to the wells of a 96-well plate (5×10^4 cells/well). Then, rhG-CSF was added to the wells (0, 0.006, 0.025, 0.1, 0.4 ng/mL), and the cells in the wells were cultured under 5% CO2 for 48 hours at 37° C. After completion of incubation, a solution of WST-1/1-methoxy PMS was added to the wells (final concentration: 5 mM), and the cells in the wells were cultured in a CO2 incubator for 2 hours. After completion of incubation, the absorbance of the cultured solution was measured at a wavelength of 450 nm. The results are shown in FIG. 1 (mean±standard error, n=5).
A solution prepared by diluting a compound with DMEM was added to the wells of a 96-well microplate (10 μL/well). The human G-CSF-dependent cell strain was added to the wells (5.0×10^4 cells/100 μL), followed by incubation for 48 hours at 37° C. After completion of incubation, a solution of WST-1/1-methoxy PMS (final concentration: 5 mM) was added to the wells, followed by incubation in a CO2 incubator for 2 hours. After completion of incubation, the absorbance was measured at a wavelength of 450 nm. The results are shown in FIG. 2 (mean±standard error, n=5).
Using the test data obtained from Test Example 1, human-G-CSF equivalent concentrations (ng/mL) corresponding to respective compound concentrations employed in Test Example 2 were calculated. The results are shown in Table 1 (mean±standard error, n=5).

| Compound | human-G-CSF equivalent concentration (compound conc. 10^−6 M) [ng/mL] | human-G-CSF equivalent concentration (compound conc. 10^−7 M) [ng/mL] | human-G-CSF equivalent concentration (compound conc. 10^−8 M) [ng/mL] |
| --- | --- | --- | --- |
| CCCCCCCCCOc1ccc(Cl)cc1C(C)(O)Cn1ccnc1 (stereo not drawn) [Compound (1-1), 2-(5-Chloro-2-(n-nonyloxy)phenyl)-1-(1H-1-imidazolyl)-2-propanol] | 0.131 ± 0.001 | 0.032 ± 0.0003 | 0.015 ± 0.0001 |
| CCCCCCCOc1ccc(Cl)cc1C(C)(O)Cn1ccnc1 (stereo not drawn) [Compound (1-2), 2-(5-Chloro-2-(n-heptyloxy)phenyl)-1-(1H-1-imidazolyl)-2-propanol] | 0.049 ± 0.0004 | 0.037 ± 0.0003 | 0.013 ± 0.0001 |
| CCCCCCCCOc1ccc(Cl)cc1C(C)(O)Cn1ccnc1 (stereo not drawn) [Compound (1-3), 2-(5-Chloro-2-(n-octyloxy)phenyl)-1-(1H-1-imidazolyl)-2-propanol] | 0.057 ± 0.0005 | 0.057 ± 0.0005 | 0.018 ± 0.0001 |
